Measurements reported in patent US20140344996A1, “METHODS AND MEANS TO PRODUCE ABIOTIC STRESS TOLERANT PLANTS” (VIB VZW, priority 2011, published 2014).

Legend:
Format in all cases: in vivo, Arabidopsis thaliana
[1] = system: Arabidopsis wild-type plants; assay: Growth of the third leaf under mild osmotic stress (mannitol); conditions: wild-type line, transfer at 9DAS to medium with 25 mM Mannitol
Procedure: It was opted to study growing plants upon exposure to mild stress, not threatening plant survival but only reducing plant growth by an average of 50%. For loss-of-function analysis, the double erf5/erf6 T-DNA insertion mutant and a wild-type line were grown on control medium until 9DAS and then transferred to growth medium containing 25 mM of the osmoticum Mannitol. Subsequently, upon transfer, growth of the third leaf was measured.
Seedlings were grown in vitro on half-strength Murashige and Skoog medium (Murashige and Skoog 1962) containing 1% sucrose and 6.5 g/L agar at 21° C. under a 16-hour day (110 μmol m^−2 s^−1) and 8-hour night regimen. The growth medium was overlaid with nylon mesh (Prosep, Zaventem, Belgium) of 20 μm pore size to facilitate transfer to induction medium. For expression analysis and growth experiments, 64 resp. 32 seeds were equally distributed on a 15-cm diameter petri dish. […]
Growth analysis was performed on the third true leaf harvested at different time points after transfer to Dex. […] Photographs of leaves and drawings were used to measure leaf area and cell size, respectively, using ImageJ v1.37o (NIH; on the World Wide Web at //rsb.info.nih.gov/ij/), and from these cell numbers were calculated by dividing leaf area with cell area.

Arabidopsis seedlings [2] = assay: Leaf growth of Arabidopsis seedlings in vitro after transfer to Dex medium; conditions: 5 μM Dexamethasone in ½ MS medium, transfer at 9DAS
Procedure: Seedlings were grown in vitro on half-strength Murashige and Skoog medium (Murashige and Skoog 1962) containing 1% sucrose and 6.5 g/L agar at 21° C. under a 16-hour day (110 μmol m^−2 s^−1) and 8-hour night regimen. The growth medium was overlaid with nylon mesh (Prosep, Zaventem, Belgium) of 20 μm pore size to facilitate transfer to induction medium. For expression analysis and growth experiments, 64 resp. 32 seeds were equally distributed on a 15-cm diameter petri dish. […] At 9DAS, when the third leaf is fully proliferating, the mesh with seedlings was transferred to plates containing ½ MS medium with 5 μM Dexamethasone (Dex). For expression analysis and growth experiments, all seedlings were transferred to Dex, including the control lines, to account for the possible effects of Dex on growth or gene expression. […] Here, the non-treated plants will serve as a control for the Dex-induced plants of the same line. […] Growth analysis was performed on the third true leaf harvested at different time points after transfer to Dex. After clearing with 70% ethanol, leaves were mounted in lactic acid on microscopic slides. […] Photographs of leaves and drawings were used to measure leaf area and cell size, respectively, using ImageJ v1.37o (NIH; on the World Wide Web at //rsb.info.nih.gov/ij/), and from these cell numbers were calculated by dividing leaf area with cell area.

Arabidopsis seedlings [3] = assay: Gene expression in the third leaf after transfer to Dex medium; conditions: 5 μM Dexamethasone in ½ MS medium, transfer at 9DAS
Procedure: At 9DAS, when the third leaf is fully proliferating, the mesh with seedlings was transferred to plates containing ½ MS medium with 5 μM Dexamethasone (Dex). For expression analysis and growth experiments, all seedlings were transferred to Dex, including the control lines, to account for the possible effects of Dex on growth or gene expression. […] Here, the non-treated plants will serve as a control for the Dex-induced plants of the same line. […] Leaf 3 was harvested from plants at 1, 2, 4 and 24 hours after transfer. Samples were obtained from three independent experiments and from multiple plates within the experiment. Whole seedlings were harvested rapidly in an excess of RNAlater solution (Ambion) and, after overnight storage at 4° C., dissected under a binocular microscope on a cooling plate with precision microscissors. Dissected leaves were transferred to a new tube, frozen in liquid nitrogen, and ground with a Retsch machine and 3-mm metal balls. RNA was extracted with TriZol (Invitrogen) and further purified with the RNEASY® Mini Kit (Qiagen). DNA digestion was done on-column with Rnase-free DNase I (Roche). […] Melting curves were analyzed to check primer specificity. […] Ct refers to the number of cycles at which SYBR Green fluorescence reaches an arbitrary value during the exponential phase of the cDNA amplification.

SMILES	growth of the third leaf [1]	effect on growth (Arabidopsis seedlings [2])	effect on gene expression (Arabidopsis seedlings [3])
OC[C@@H](O)[C@@H](O)[C@H](O)[C@H](O)CO [Mannitol]	expected growth reduction	–	–
C[C@@H]1C[C@H]2[C@@H]3CCC4=CC(=O)C=C[C@]4(C)[C@@]3(F)[C@@H](O)C[C@]2(C)[C@@]1(O)C(=O)CO [Dex, Dexamethasone]	–	no effect	no effect
